Experimental data as given in patent publication US5258398A, “Antithrombotic diaminoalkanoic acid derivatives” (Rhone-Poulenc Rorer Pharmaceuticals Inc., priority 1991, dated 1993).

What follows are compounds tested on fixed activated platelets (assay: Platelet Aggregation Assay (inhibition of fibrinogen-mediated aggregation of fixed-activated platelets)). Conditions: human fibrinogen 250 μg/ml, fixed thrombin-activated human platelets.
Format: cell-based
From the text: (§1) The effectiveness of compounds of the present invention as inhibitors of thrombus formation and platelet aggregation may be determined by the following pharmacologic tests which evaluate the inhibition of fibrinogen-mediated platelet aggregation and fibrinogen binding to thrombin-stimulated platelets by said compounds.
(§2) The Platelet Aggregation Assay is based on that described in Blood 66 (4), 946-952 (1985). The Fibrinogen-Binding Assay is essentially that of Ruggeri, Z. M., et al., Proc. Natl. Acad. Sci. USA 83, 5708-5712 (1986) and Plow, E. F., et al., Proc. Natl. Acad. Sci., USA 82, 8057-8061 (1985).
Preparation of Fixed-Activated Platelets
Platelets are isolated from human platelet concentrates using the gel-filtration technique as described by Marguerie, G. A., et al., J. Biol. Chem. 254, 5357-5363 (1979) and Ruggeri, Z. M., et al., J. Clin. Invest. 72, 1-12 (1983). The platelets are suspended at a concentration of 2×10^8 cells/ml in a modified calcium-free Tyrode's buffer containing 127 mM sodium chloride, 2 mM magnesium chloride, 0.42 mM Na2 HPO4, 11.9 mM NaHCO3, 2.9 mM KCl, 5.5 mM glucose, 10 mM HEPES, at a pH of 7.35 and 0.35% human serum albumin (HSA). These washed platelets are activated by addition of human α-thrombin at a final concentration of 2 units/ml, followed by thrombin inhibitor I-2581 at a final concentration of 40 μM. To the activated platelets is added paraformaldehyde to a final concentration of 0.50% and this incubated at room temperature for 30 minutes. The fixed activated platelets are then collected by centrifugation at 650×g for 15 minutes. The platelet pellets are washed four times with the above Tyrode's-0.35% HSA buffer and resuspended to 2×10^8 cells/ml in the same buffer.
Platelet Aggregation Assay
The fixed activated platelets are incubated with a selected dose of the compound to be tested for platelet aggregation inhibition for one minute and aggregation initiated by addition of human fibrinogen to a final concentration of 250 μg/ml. A platelet aggregation profiler Model PAP-4 is used to record the platelet aggregation. The extent of inhibition of aggregation is expressed as the percentage of the rate of aggregation observed in the absence of inhibitor. IC50, i.e., the amount of inhibitor required to reduce the aggregation rate by 50%, is then calculated for each compound (see, for example, Plow, E. F., et al., Proc. Natl. Acad. Sci., USA 82, 8057-8061 (1985)).
For N=C(N)NCCCCCCCC(=O)NC(CC(=O)O)NC(=O)CCCCCCCNC(=N)N (stereo not shown) [Example 1, N,N'-bis-(8-guanidino)octanoyl-3,3-diaminopropionic acid], the IC50 was 0.12 µM.
N=C(N)NCCCCCCCCC(=O)N[C@H](CC(=O)O)NC(=O)CCCCCCCNC(=N)N [Example 2, (3S)-N-(8-guanidino)octanoyl-N'-(9-guanidino)nonanoyl-3,3-diaminopropionic acid] was tested, and the IC50 was 1.3 µM.
N=C(N)NCCCCCCC(=O)NC(CC(=O)O)NC(=O)CCCCCCNC(=N)N (stereo not shown) [Example 4, N,N'-bis-(7-guanidino)heptanoyl-3,3-diaminopropionic acid] showed an IC50 of 2.8 µM.
In the case of N=C(N)NCCCCCCCCC(=O)NC(CC(=O)O)NC(=O)CCCCCCCCNC(=N)N (stereo not shown) [Example 5, N,N'-bis-(9-guanidino)nonanoyl-3,3-diaminopropionic acid], the IC50 is reported as 0.14 µM.
Work on N=C(N)NCCCCCCCCC(=O)N[C@H](CC(=O)O)NC(=O)CCCCCCNC(=N)N [Example 6, (3S)-N-(7-guanidino)heptanoyl-N'-(9-guanidino)nonanoyl-3,3-diaminopropionicacid] yielded an IC50 of 2.8 µM.
With N=C(N)NCCCCCCCC(=O)N[C@H](CC(=O)O)NC(=O)CCCCCCNC(=N)N [Example 7, (3S)-N-(7-guanidino)heptanoyl-N'-(8-guanidino)octanoyl-3,3-diaminopropionicacid] the IC50 was 0.74 µM.
With N=C(N)NCCCCCCCCC(=O)N[C@@H](CC(=O)O)NC(=O)CCCCCCCNC(=N)N [Example 8, (3R)-N-(8-guanidino)octanoyl-N'-(9-guanidino)nonanoyl-3,3-diaminopropionic acid] the IC50 was 0.3 µM.
For N=C(N)NCCCCCCCC(=O)N[C@H](CC(=O)O)NC(=O)[C@@H](N)CCCNC(=N)N [Example 9, (3S)-N-L-arginyl-N'-(8-guanidino)octanoyl-3,3-diaminopropionic acid], the IC50 was 9.8 µM.
In the case of N=C(N)NCCCCCCCCC(=O)N[C@@H](CC(=O)O)NC(=O)CCCCCCNC(=N)N [Example 10, (3R)-N-(7-guanidino)heptanoyl-N'-(9-guanidino)nonanoyl-3,3-diaminopropionicacid], the IC50 is reported as 0.12 µM.
N=C(N)NCCCCCCCC(=O)N[C@@H](CC(=O)O)NC(=O)CCCCCCNC(=N)N [Example 11, (3R)-N-(7-guanidino)heptanoyl-N'-(8-guanidino)octanoyl-3,3-diaminopropionicacid] showed an IC50 of 0.32 µM.
For CC(C)CC(=O)N[C@H](CC(=O)O)NC(=O)CCCCCCCNC(=N)N [Example 12, (3R)-N-(8-guanidino)octanoyl-N'-(3-methyl)butanoyl-3,3-diaminopropionic acid], the IC50 was 2 µM.
In the case of CC[C@@H](C)[C@@H](NC(=O)CCCCNC(=N)N)C(=O)N[C@H](CC(=O)O)NC(=O)CCCCCCCCNC(=N)N [Example 15, (3R)-N-[N-[(5-guanidino)pentanoyl]-D-isoleucyl]-N'-(9-guanidino)nonanoyl-3,3-diaminopropionic acid], the IC50 is reported as 25 µM.
CC[C@H](C)[C@H](NC(=O)CCCCNC(=N)N)C(=O)N[C@H](CC(=O)O)NC(=O)CCCCCCCCNC(=N)N [Example 17] gave an IC50 of 17.5 µM.
With N=C(N)NCCCCCCCC(=O)NC(CCC(=O)O)NC(=O)CCCCCCCNC(=N)N (stereo not shown) [Example 18, N,N'-bis-(8-guanidino)octanoyl-4,4-diaminobutanoic acid] the IC50 was greater than 100 µM.

The compounds below were run on thrombin-stimulated platelets (assay: Fibrinogen-Binding Assay (inhibition of 125I-fibrinogen binding to platelets)). Conditions: 125I-labeled fibrinogen 0.176 μmol/liter (60 μg/ml); 22°-25° C., 30 minutes; read-out: Inhibition of 125I-Fibrinogen Binding to Platelet (IC50).
From the text: as §1, §2
Platelets are washed free of plasma constituents by the albumin density-gradient technique of Walsh, P. N., et al., Br. J. Haematol. 281-296 (1977), as modified by Trapani-Lombardo, V., et al., J. Clin Invest. 76, 1950-1958 (1985). […] The platelet pellet is then separated from the rest of the mixture to determine platelet-bound radioactivity. Nonspecific binding is measured in mixtures containing an excess of unlabeled ligand. When binding curves are analyzed by Scatchard analysis, nonspecific binding is derived as a fitted parameter from the binding isotherm by means of a computerized program (Munson, P. J., Methods Enzymol. 92, 542-576 (1983)). […]
Compound N=C(N)NCCCCCCCC(=O)NC(CC(=O)O)NC(=O)CCCCCCCNC(=N)N (stereo not shown) [Example 1, N,N'-bis-(8-guanidino)octanoyl-3,3-diaminopropionic acid] has an IC50 of 0.07 µM.
N=C(N)NCCCCCCCC(=O)N[C@H](CC(=O)O)NC(=O)[C@@H](N)CCCNC(=N)N [Example 9, (3S)-N-L-arginyl-N'-(8-guanidino)octanoyl-3,3-diaminopropionic acid] was tested, and the IC50 was 1.2 µM.
